Experimental data reported in patent US20260364215A1, “Radiopharmaceutical Compositions Targeting Ephrin Type-A Receptor 2 and Uses Thereof” (PeptiDream Inc., priority 2022, published 2026).
Numbered stars: 1 amine (or outer) side, 2 acyl side, 3 side chain; on linkers, the order of the positions; unused ones are H or OH. Bridge positions count the residues as written; N and C are the ends. Square brackets hold non-standard residues; d marks the D form. Side chains are listed from the residue outwards. Peptide text beside a SMILES is read from it. * marks the point of attachment. DOTA(Lu) = O=C1CN2CCN3CCN(CC(=O)*)CCN(CC2)CC(=O)[O][Lu]([O]1)[O]C(=O)C3; NH(1-deoxy-D-glucityl) = OC[C@@H](O)[C@@H](O)[C@H](O)[C@@H](O)CN*; DOTA = O=C(O)CN1CCN(CC(=O)O)CCN(CC(=O)*)CCN(CC(=O)O)CC1; Trp(1-Me,7-Cl) = Cn1cc(C[C@H](N)C(=O)O)c2cccc(Cl)c21; dPhe(3-CONH2) = NC(=O)c1cccc(C[C@@H](N)C(=O)O)c1; Piperazinyl(4-CH2COOH) = O=C(O)CN1CCN(*)CC1; Trp(1-Me) = Cn1cc(C[C@H](N)C(=O)O)c2ccccc21; NMe3Pal = CN[C@@H](Cc1cccnc1)C(=O)O; NMeF = CN[C@@H](Cc1ccccc1)C(=O)O; hCit = NC(=O)NCCCC[C@H](N)C(=O)O; Gly(cBu) = N[C@H](C(=O)O)C1CCC1; NMeE = CN[C@@H](CCC(=O)O)C(=O)O; Aad = N[C@@H](CCCC(=O)O)C(=O)O; Cit = NC(=O)NCCC[C@H](N)C(=O)O; NMeN = CN[C@@H](CC(N)=O)C(=O)O; CO = O=C([*:1])[*:2]

The molecules below were run against T1, Recombinant Human EphA2 Fc Protein (Homo sapiens, UniProt P29317) (assay: Interaction analysis (kinetics, KD) of peptides and conjugates against EphA2 by SPR, Biacore T200, single-cycle kinetics (Examples B15 and B22)). Conditions: not given.
T1 construct: purchased Elabscience
Type: binding
Summary of the method: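 Biacore T200 SPR with Fc-tagged human EphA2 captured via anti-human antibody; running buffer HBS-P+ pH 7.4 with 1% DMSO, 25 °C. Five serial dilutions of peptide or conjugate run by single-cycle kinetics; KD from ka and kd after baseline subtraction.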

T1 sequence (P29317 24-534 limits assumed): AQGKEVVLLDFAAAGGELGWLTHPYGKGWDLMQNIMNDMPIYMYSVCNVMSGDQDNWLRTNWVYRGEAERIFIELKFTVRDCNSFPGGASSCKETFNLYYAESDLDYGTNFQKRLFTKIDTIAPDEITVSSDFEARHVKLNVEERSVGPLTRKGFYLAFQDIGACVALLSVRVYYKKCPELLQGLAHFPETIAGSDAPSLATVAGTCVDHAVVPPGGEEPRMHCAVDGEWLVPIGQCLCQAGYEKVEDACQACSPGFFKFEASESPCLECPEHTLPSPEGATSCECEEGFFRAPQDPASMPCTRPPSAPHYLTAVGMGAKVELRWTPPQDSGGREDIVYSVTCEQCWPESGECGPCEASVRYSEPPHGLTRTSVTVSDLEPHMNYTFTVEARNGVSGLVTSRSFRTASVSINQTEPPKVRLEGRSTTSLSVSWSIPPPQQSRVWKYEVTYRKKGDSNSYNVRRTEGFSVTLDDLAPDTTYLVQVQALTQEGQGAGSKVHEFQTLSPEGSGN

SMILES | Kd [nM]
CN1C(=O)[C@H](CCC(=O)NC[C@H](O)[C@@H](O)[C@H](O)[C@H](O)CO)NC(=O)[C@H](C2CCC2)NC(=O)[C@H](CC(N)=O)NC(=O)[C@H](Cc2cccnc2)N(C)C(=O)[C@@H](Cc2cccc(C(N)=O)c2)NC(=O)CSC[C@@H](C(=O)N[C@@H](CCCCNC(=O)CN2CCN3CCN4CCN(CC2)CC(=O)[O][Lu]([O]C(=O)C3)[O]C(=O)C4)C(N)=O)NC(=O)[C@H](Cc2cn(C)c3ccccc23)NC(=O)[C@H](CCC(=O)NC[C@H](O)[C@@H](O)[C@H](O)[C@H](O)CO)NC(=O)[C@H](Cc2cn(C)c3c(Cl)cccc23)NC(=O)[C@@H]1Cc1cccnc1 [PDC_EphA2-00026604-C301] ({CH2CO}-[dPhe(3-CONH2)][NMe3Pal]N[Gly(cBu)]E(NH(1-deoxy-D-glucityl))[NMe3Pal][Trp(1-Me,7-Cl)]E(NH(1-deoxy-D-glucityl))[Trp(1-Me)]CK(DOTA(Lu))-NH2; thioether N-10) | < 1
CC(C)C[C@@H]1NC(=O)[C@H](CC(N)=O)NC(=O)[C@H](Cc2cccnc2)N(C)C(=O)[C@@H](Cc2cccc(C(N)=O)c2)NC(=O)CSC[C@@H](C(N)=O)NC(=O)[C@H](CCCC(N)=O)NC(=O)[C@H]([C@@H](C)O)NC(=O)[C@H](Cc2cn(C)c3ccccc23)NC(=O)[C@H](CCC(=O)NC[C@H](O)[C@@H](O)[C@H](O)[C@H](O)CO)NC(=O)[C@H](Cc2cn(C)c3c(Cl)cccc23)NC(=O)[C@H](CC(N)=O)N(C)C(=O)[C@H](CCCCNC(=O)CN2CCN3CCN4CCN(CC2)CC(=O)[O][Lu]([O]C(=O)C3)[O]C(=O)C4)NC1=O [PDC_EphA2-00026714] ({CH2CO}-[dPhe(3-CONH2)][NMe3Pal]NLK(DOTA(Lu))[NMeN][Trp(1-Me,7-Cl)]E(NH(1-deoxy-D-glucityl))[Trp(1-Me)]T[Aad](NH2)C-NH2; thioether N-12) | < 1
C[C@H]1NC(=O)CSC[C@@H](C(N)=O)NC(=O)[C@H](CCCCNC(=O)[C@@H](CCC(=O)O)NC(=O)CN2CCN3CCN4CCN(CC2)CC(=O)[O][Lu]([O]C(=O)C3)[O]C(=O)C4)NC(=O)[C@H]([C@@H](C)O)NC(=O)[C@H](Cc2cn(C)c3ccccc23)NC(=O)[C@H](CCCCNC(=O)N2CCN(CC(=O)O)CC2)NC(=O)[C@H](Cc2cn(C)c3c(Cl)cccc23)NC(=O)[C@H](CCC(=O)O)N(C)C(=O)[C@H](CCCC(N)=O)NC(=O)[C@H](C2CCC2)NC(=O)[C@H](CC(N)=O)NC(=O)[C@H](Cc2cccnc2)N(C)C1=O [PDC_EphA2-00027128] ({CH2CO}-[dA][NMe3Pal]N[Gly(cBu)][Aad](NH2)[NMeE][Trp(1-Me,7-Cl)]K([CO-Piperazinyl(4-CH2COOH)])[Trp(1-Me)]TK([dE-DOTA(Lu)])C-NH2; thioether N-12) | < 1
C[C@H]1NC(=O)CSC[C@@H](C(=O)N[C@H](CCCCNC(=O)CN2CCN3CCN4CCN(CC2)CC(=O)[O][Lu]([O]C(=O)C3)[O]C(=O)C4)C(N)=O)NC(=O)[C@H](CCCC(N)=O)NC(=O)[C@H]([C@@H](C)O)NC(=O)[C@H](Cc2cn(C)c3ccccc23)NC(=O)[C@H](CCC(=O)NC[C@H](O)[C@@H](O)[C@H](O)[C@H](O)CO)NC(=O)[C@H](Cc2cn(C)c3ccccc23)NC(=O)[C@H](Cc2cccnc2)N(C)C(=O)[C@H](CCCC(N)=O)NC(=O)[C@H](C2CCC2)NC(=O)[C@H](CC(N)=O)NC(=O)[C@H](Cc2cccnc2)N(C)C1=O [PDC_EphA2-00013705-C302] ({CH2CO}-[dA][NMe3Pal]N[Gly(cBu)][Aad](NH2)[NMe3Pal][Trp(1-Me)]E(NH(1-deoxy-D-glucityl))[Trp(1-Me)]T[Aad](NH2)C[dK](DOTA(Lu))-NH2; thioether N-12) | < 1
CN1C(=O)[C@H](CCC(=O)NC[C@H](O)[C@@H](O)[C@H](O)[C@H](O)CO)NC(=O)[C@H](C2CCC2)NC(=O)[C@H](CC(N)=O)NC(=O)[C@H](Cc2cccnc2)N(C)C(=O)[C@@H](Cc2cccc(C(N)=O)c2)NC(=O)CSC[C@@H](C(=O)N[C@@H](CCCCNC(=O)CN2CCN3CCN4CCN(CC2)CC(=O)[O][Lu]([O]C(=O)C3)[O]C(=O)C4)C(N)=O)NC(=O)[C@H](Cc2cn(C)c3ccccc23)NC(=O)[C@H](CCCCNC(N)=O)NC(=O)[C@H](Cc2cn(C)c3c(Cl)cccc23)NC(=O)[C@@H]1CCC(=O)O [PDC_EphA2-00026607-C301] ({CH2CO}-[dPhe(3-CONH2)][NMe3Pal]N[Gly(cBu)]E(NH(1-deoxy-D-glucityl))[NMeE][Trp(1-Me,7-Cl)][hCit][Trp(1-Me)]CK(DOTA(Lu))-NH2; thioether N-10) | < 1

Same assay, conditions: conjugates, Biacore T200 according to Example B15, Table B16; read-out: SPR Kd

SMILES | Kd [nM]
C[C@@H](O)[C@@H]1NC(=O)[C@H](Cc2cn(C)c3ccccc23)NC(=O)[C@H](CCC(=O)NC[C@H](O)[C@@H](O)[C@H](O)[C@H](O)CO)NC(=O)[C@H](Cc2cn(C)c3c(Cl)cccc23)NC(=O)[C@H](Cc2cccnc2)N(C)C(=O)[C@H](CCCC(N)=O)NC(=O)[C@H](C2CCC2)NC(=O)[C@H](CC(N)=O)NC(=O)[C@H](Cc2cccnc2)N(C)C(=O)[C@@H](Cc2cccc(C(N)=O)c2)NC(=O)CSC[C@@H](C(=O)N[C@H](CCCCNC(=O)CN2CCN(CC(=O)O)CCN(CC(=O)O)CCN(CC(=O)O)CC2)C(=O)O)NC(=O)[C@H](CCCC(N)=O)NC1=O.[Lu+3] [PDC_EphA2-00026774] ({CH2CO}-[dPhe(3-CONH2)][NMe3Pal]N[Gly(cBu)][Aad](NH2)[NMe3Pal][Trp(1-Me,7-Cl)]E(NH(1-deoxy-D-glucityl))[Trp(1-Me)]T[Aad](NH2)C[dK](DOTA)-OH; thioether N-12) | < 1
CC(C)C[C@@H]1NC(=O)[C@H](CC(N)=O)NC(=O)[C@H](Cc2cccnc2)N(C)C(=O)[C@@H](Cc2cccc(C(N)=O)c2)NC(=O)CSC[C@@H](C(N)=O)NC(=O)[C@H](CCCCNC(=O)CN2CCN(CC(=O)O)CCN(CC(=O)O)CCN(CC(=O)O)CC2)NC(=O)[C@H]([C@@H](C)O)NC(=O)[C@H](Cc2cn(C)c3ccccc23)NC(=O)[C@H](CCCCNC(=O)N2CCN(CC(=O)O)CC2)NC(=O)[C@H](Cc2cn(C)c3c(Cl)cccc23)NC(=O)[C@H](CCC(=O)O)N(C)C(=O)[C@H](CCCC(N)=O)NC1=O.[Lu+3] [PDC_EphA2-00026719] ({CH2CO}-[dPhe(3-CONH2)][NMe3Pal]NL[Aad](NH2)[NMeE][Trp(1-Me,7-Cl)]K([CO-Piperazinyl(4-CH2COOH)])[Trp(1-Me)]TK(DOTA)C-NH2; thioether N-12) | < 1
CC(C)C[C@@H]1NC(=O)[C@H](CC(N)=O)NC(=O)[C@H](Cc2cccnc2)N(C)C(=O)[C@@H](C)NC(=O)CSC[C@@H](C(=O)N[C@H](CCCCNC(=O)CN2CCN(CC(=O)O)CCN(CC(=O)O)CCN(CC(=O)O)CC2)C(N)=O)NC(=O)[C@H](CCCC(N)=O)NC(=O)[C@H]([C@@H](C)O)NC(=O)[C@H](Cc2cn(C)c3ccccc23)NC(=O)[C@H](CCCCNC(=O)N2CCN(CC(=O)O)CC2)NC(=O)[C@H](Cc2cn(C)c3ccccc23)NC(=O)[C@H](CCC(=O)O)N(C)C(=O)[C@H](CCCC(N)=O)NC1=O.[Lu+3] [PDC_EphA2-00026772] ({CH2CO}-[dA][NMe3Pal]NL[Aad](NH2)[NMeE][Trp(1-Me)]K([CO-Piperazinyl(4-CH2COOH)])[Trp(1-Me)]T[Aad](NH2)C[dK](DOTA)-NH2; thioether N-12) | < 1
CC(C)[C@@H]1NC(=O)[C@H](Cc2cn(C)c3ccccc23)NC(=O)[C@H](CC(N)=O)N(C)C(=O)[C@H](CCCC(N)=O)NC(=O)[C@H](C2CCC2)NC(=O)[C@H](CC(N)=O)NC(=O)[C@H](Cc2ccccc2)N(C)C(=O)[C@@H](C)NC(=O)CSC[C@@H](C(=O)N[C@H](CCCCNC(=O)CN2CCN(CC(=O)O)CCN(CC(=O)O)CCN(CC(=O)O)CC2)C(=O)O)NC(=O)[C@H](CCCC(N)=O)NC(=O)[C@H]([C@@H](C)O)NC(=O)[C@H](Cc2cn(C)c3ccccc23)NC1=O.[Lu+3] [PDC_EphA2-00026773] ({CH2CO}-[dA][NMeF]N[Gly(cBu)][Aad](NH2)[NMeN][Trp(1-Me)]V[Trp(1-Me)]T[Aad](NH2)C[dK](DOTA)-OH; thioether N-12) | < 1
CC(C)C[C@@H]1NC(=O)[C@H](CC(N)=O)NC(=O)[C@H](Cc2cccnc2)N(C)C(=O)[C@@H](Cc2cccc(C(N)=O)c2)NC(=O)CSC[C@@H](C(N)=O)NC(=O)[C@H](CCCC(N)=O)NC(=O)[C@H]([C@@H](C)O)NC(=O)[C@H](Cc2cn(C)c3ccccc23)NC(=O)[C@H](CCCCNC(=O)N2CCN(CC(=O)O)CC2)NC(=O)[C@H](Cc2cn(C)c3c(Cl)cccc23)NC(=O)[C@H](CCC(=O)O)N(C)C(=O)[C@H](CCCCNC(=O)CN2CCN(CC(=O)O)CCN(CC(=O)O)CCN(CC(=O)O)CC2)NC1=O.[Lu+3] [PDC_EphA2-00026717] ({CH2CO}-[dPhe(3-CONH2)][NMe3Pal]NLK(DOTA)[NMeE][Trp(1-Me,7-Cl)]K([CO-Piperazinyl(4-CH2COOH)])[Trp(1-Me)]T[Aad](NH2)C-NH2; thioether N-12) | < 1

Same assay, conditions: peptides, Biacore T200, 25 °C, Table B12; read-out: SPR Kd

Kd [nM] | SMILES
< 1 | CC(C)C[C@@H]1NC(=O)[C@H](CC(N)=O)NC(=O)[C@H](Cc2cccnc2)N(C)C(=O)[C@@H](Cc2cccc(C(N)=O)c2)NC(=O)CSC[C@@H](C(N)=O)NC(=O)[C@H](CC(N)=O)NC(=O)[C@H]([C@@H](C)O)NC(=O)[C@H](Cc2cn(C)c3ccccc23)NC(=O)[C@H](CCC(=O)NC[C@H](O)[C@@H](O)[C@H](O)[C@H](O)CO)NC(=O)[C@H](Cc2cn(C)c3c(Cl)cccc23)NC(=O)[C@H](Cc2cccnc2)N(C)C(=O)[C@H](CC(N)=O)NC1=O [PDC_EphA2-00026424] ({CH2CO}-[dPhe(3-CONH2)][NMe3Pal]NLN[NMe3Pal][Trp(1-Me,7-Cl)]E(NH(1-deoxy-D-glucityl))[Trp(1-Me)]TNC-NH2; thioether N-12)
< 1 | CC(C)C[C@@H]1NC(=O)[C@H](CC(N)=O)NC(=O)[C@H](Cc2cccnc2)N(C)C(=O)[C@@H](Cc2cccc(C(N)=O)c2)NC(=O)CSC[C@@H](C(N)=O)NC(=O)[C@H](CC(N)=O)NC(=O)[C@H]([C@@H](C)O)NC(=O)[C@H](Cc2cn(C)c3ccccc23)NC(=O)[C@H](CCCNC(N)=O)NC(=O)[C@H](Cc2cn(C)c3c(Cl)cccc23)NC(=O)[C@H](CC(N)=O)N(C)C(=O)[C@H](CC(N)=O)NC1=O [PDC_EphA2-00026426] ({CH2CO}-[dPhe(3-CONH2)][NMe3Pal]NLN[NMeN][Trp(1-Me,7-Cl)][Cit][Trp(1-Me)]TNC-NH2; thioether N-12)
